Test results from ChEMBL document CHEMBL4229379, “Synthesis and structure-activity relationship of novel bisindole amidines active against MDR Gram-positive and Gram-negative bacteria” (Eur J Med Chem, 2018).
In brackets after ≈: the same amount, converted by molar mass.

How the values were obtained:
[1] = system: Enterococcus faecalis; assay: Antibacterial activity against vancomycin-resistant Enterococcus faecalis 09-9 after 18 hrs by CLSI broth microdilution method; type: functional; conditions: 09-9, 18 h
[2] = system: Klebsiella aerogenes; assay: Antibacterial activity against Enterobacter aerogenes ATCC 13048 after 18 hrs by CLSI broth microdilution method; type: functional; conditions: ATCC 13048, 18 h
[3] = system: Acinetobacter calcoaceticus; assay: Antibacterial activity against Acinetobacter calcoaceticus ATCC 19606 after 18 hrs by CLSI broth microdilution method; type: functional; conditions: ATCC 19606, 18 h
[4] = system: Staphylococcus epidermidis; assay: Antibacterial activity against methicillin-resistant Staphylococcus epidermidis 12-8 after 18 hrs by CLSI broth microdilution method; type: functional; conditions: 12-8, 18 h
[5] = system: Enterococcus faecalis; assay: Antibacterial activity against vancomycin-sensitive Enterococcus faecalis 12-5 after 18 hrs by CLSI broth microdilution method; type: functional; conditions: 12-5, 18 h
[6] = system: Escherichia coli; assay: Antibacterial activity against extended-spectrum beta-lactamase harboring Escherichia coli 12-15 after 18 hrs by CLSI broth microdilution method; type: functional; conditions: 12-15, 18 h
[7] = system: Citrobacter freundii; assay: Antibacterial activity against Citrobacter freundii ATCC 43864 after 18 hrs by CLSI broth microdilution method; type: functional; conditions: ATCC 43864, 18 h
[8] = system: Stenotrophomonas maltophilia; assay: Antibacterial activity against Stenotrophomonas maltophilia ATCC 13636 after 18 hrs by CLSI broth microdilution method; type: functional; conditions: ATCC 13636, 18 h
[9] = system: Enterobacter cloacae; assay: Antibacterial activity against Enterobacter cloacae ATCC 43560 after 18 hrs by CLSI broth microdilution method; type: functional; conditions: ATCC 43560, 18 h
[10] = system: Enterococcus faecalis; assay: Antibacterial activity against vancomycin-resistant Enterococcus faecalis ATCC 51299 after 18 hrs by CLSI broth microdilution method; type: functional; conditions: ATCC 51299, 18 h
[11] = system: Staphylococcus aureus; assay: Antibacterial activity against methicillin-sensitive Staphylococcus aureus ATCC 29213 after 18 hrs by CLSI broth microdilution method; type: functional; conditions: ATCC 29213, 18 h
[12] = system: Pseudomonas aeruginosa; assay: Antibacterial activity against Pseudomonas aeruginosa 12-16 after 18 hrs by CLSI broth microdilution method; type: functional; conditions: 12-16, 18 h
[13] = system: Staphylococcus aureus; assay: Antibacterial activity against methicillin-resistant Staphylococcus aureus 12-33 after 18 hrs by CLSI broth microdilution method; type: functional; conditions: 12-33, 18 h
[14] = system: Klebsiella pneumoniae; assay: Antibacterial activity against extended-spectrum beta-lactamase deficient Klebsiella pneumoniae 12-4 after 18 hrs by CLSI broth microdilution method; type: functional; conditions: 12-4, 18 h
[15] = system: Klebsiella pneumoniae; assay: Antibacterial activity against new delhi metallo-beta-lactamase-1 harboring Klebsiella pneumoniae ATCC BAA-2146 after 18 hrs by CLSI broth microdilution method; type: functional; conditions: ATCC BAA-2146, 18 h
[16] = system: Proteus mirabilis; assay: Antibacterial activity against Proteus mirabilis 12-6 after 18 hrs by CLSI broth microdilution method; type: functional; conditions: 12-6, 18 h
[17] = system: Providencia rettgeri; assay: Antibacterial activity against Providencia rettgeri ATCC 31052 after 18 hrs by CLSI broth microdilution method; type: functional; conditions: ATCC 31052, 18 h
[18] = system: Serratia marcescens; assay: Antibacterial activity against Serratia marcescens ATCC 21074 after 18 hrs by CLSI broth microdilution method; type: functional; conditions: ATCC 21074, 18 h
[19] = system: Staphylococcus epidermidis; assay: Antibacterial activity against methicillin-sensitive Staphylococcus epidermidis ATCC 12228 after 18 hrs by CLSI broth microdilution method; type: functional; conditions: ATCC 12228, 18 h
[20] = system: Staphylococcus aureus; assay: Antibacterial activity against methicillin-sensitive Staphylococcus aureus 15 after 18 hrs by CLSI broth microdilution method; type: functional; conditions: Staphylococcus aureus, 15, 18 h
[21] = system: Klebsiella pneumoniae; assay: Antibacterial activity against extended-spectrum beta-lactamase harboring Klebsiella pneumoniae ATCC 700603 after 18 hrs by CLSI broth microdilution method; type: functional; conditions: Klebsiella pneumoniae, 700603, 18 h
[22] = system: Proteus vulgaris; assay: Antibacterial activity against Proteus vulgaris ATCC 29905 after 18 hrs by CLSI broth microdilution method; type: functional; conditions: ATCC 29905, 18 h
[23] = system: Klebsiella pneumoniae; assay: Antibacterial activity against extended-spectrum beta-lactamase harboring Klebsiella pneumoniae 12-8 after 18 hrs by CLSI broth microdilution method; type: functional; conditions: 12-8, 18 h
[24] = system: Staphylococcus epidermidis; assay: Antibacterial activity against methicillin-sensitive Staphylococcus epidermidis 12-6 after 18 hrs by CLSI broth microdilution method; type: functional; conditions: 12-6, 18 h
[25] = system: Escherichia coli; assay: Antibacterial activity against extended-spectrum beta-lactamase deficient Escherichia coli 12-14 after 18 hrs by CLSI broth microdilution method; type: functional; conditions: 12-14, 18 h
[26] = system: Enterococcus faecalis; assay: Antibacterial activity against vancomycin-sensitive Enterococcus faecalis ATCC 29212 after 18 hrs by CLSI broth microdilution method; type: functional; conditions: ATCC 29212, 18 h
[27] = Cytotoxicity against HEK293T cells assessed as reduction in cell viability after 48 hrs by MTS assay; type: cell-based, HEK-293T; conditions: human
[28] = system: Staphylococcus aureus; assay: Antibacterial activity against methicillin-resistant Staphylococcus aureus ATCC 33591 after 18 hrs by CLSI broth microdilution method; type: functional; conditions: ATCC 33591, 18 h
[29] = system: Pseudomonas aeruginosa; assay: Antibacterial activity against Pseudomonas aeruginosa ATCC 27853 after 18 hrs by CLSI broth microdilution method; type: functional; conditions: ATCC 27853, 18 h
[30] = system: Escherichia coli; assay: Antibacterial activity against extended-spectrum beta-lactamase deficient Escherichia coli 1515 after 18 hrs by CLSI broth microdilution method; type: functional; conditions: Escherichia coli, 1515, 18 h
[31] = system: Klebsiella pneumoniae; assay: Antibacterial activity against extended-spectrum beta-lactamase deficient Klebsiella pneumoniae 7 after 18 hrs by CLSI broth microdilution method; type: functional; conditions: Klebsiella pneumoniae, 7, 18 h
[32] = system: Enterococcus faecium; assay: Antibacterial activity against vancomycin-resistant Enterococcus faecium 12-1 after 18 hrs by CLSI broth microdilution method; type: functional; conditions: 12-1, 18 h
[33] = system: Enterococcus faecium; assay: Antibacterial activity against vancomycin-sensitive Enterococcus faecium 12-3 after 18 hrs by CLSI broth microdilution method; type: functional; conditions: 12-3, 18 h
[34] = system: Pseudomonas aeruginosa; assay: Antibacterial activity against Pseudomonas aeruginosa PAO1 after 18 hrs by CLSI broth microdilution method; type: functional; conditions: PAO1, 18 h
[35] = system: Staphylococcus aureus; assay: Antibacterial activity against methicillin-sensitive Staphylococcus aureus 12-28 after 18 hrs by CLSI broth microdilution method; type: functional; conditions: 12-28, 18 h
[36] = system: Enterococcus faecium; assay: Antibacterial activity against vancomycin-resistant Enterococcus faecium ATCC 700221 after 18 hrs by CLSI broth microdilution method; type: functional; conditions: ATCC 700221, 18 h
[37] = system: Escherichia coli; assay: Antibacterial activity against extended-spectrum beta-lactamase deficient Escherichia coli ATCC 25922 after 18 hrs by CLSI broth microdilution method; type: functional; conditions: ATCC 25922, 18 h

| SMILES | MIC [1] [mg/L] | MIC [2] [mg/L] | MIC [3] [mg/L] | MIC [4] [mg/L] | MIC [5] [mg/L] | MIC [6] [mg/L] | MIC [7] [mg/L] | MIC [8] [mg/L] | MIC [9] [mg/L] | MIC [10] [mg/L] | MIC [11] [mg/L] | MIC [12] [mg/L] | MIC [13] [mg/L] | MIC [14] [mg/L] | MIC [15] [mg/L] | MIC [16] [mg/L] | MIC [17] [mg/L] | MIC [18] [mg/L] | MIC [19] [mg/L] | MIC [20] [mg/L] | other results |
| --- | --- | --- | --- | --- | --- | --- | --- | --- | --- | --- | --- | --- | --- | --- | --- | --- | --- | --- | --- | --- | --- |
| CN(C)C(=N)c1ccc2cc(-c3ccc4ccc(-c5cc6ccc(C(=N)N(C)C)cc6[nH]5)cc4c3)[nH]c2c1 | 128 (≈ 257 µM) | > 128 | > 128 | 4 (≈ 8.02 µM) | 128 (≈ 257 µM) | > 128 | > 128 | > 128 | > 128 | 128 (≈ 257 µM) | 4 (≈ 8.02 µM) | > 128 | 8 (≈ 16 µM) | > 128 | > 128 | > 128 | > 128 | > 128 | 4 (≈ 8.02 µM) | 4 (≈ 8.02 µM) | MIC [21]: > 128 mg/L; MIC [22]: > 128 mg/L; MIC [23]: > 128 mg/L; MIC [24]: 64 mg/L (≈ 128 µM); MIC [25]: > 128 mg/L; MIC [26]: 128 mg/L (≈ 257 µM); CC50 at 48 h [27]: 13.6 mg/L (≈ 27.4 µM); MIC [28]: 4 mg/L (≈ 8.02 µM); MIC [29]: > 128 mg/L; MIC [30]: > 128 mg/L; MIC [31]: > 128 mg/L; MIC [32]: 16 mg/L (≈ 32.1 µM); MIC [33]: 32 mg/L (≈ 64.2 µM); MIC [34]: > 128 mg/L; MIC [35]: 4 mg/L (≈ 8.02 µM); MIC [36]: 128 mg/L (≈ 257 µM); MIC [37]: > 128 mg/L |
| COCCNC(=N)c1ccc2cc(-c3cncc(-c4cc5ccc(C(=N)NCCOC)cc5[nH]4)c3)[nH]c2c1 | > 64 | > 64 | > 64 | > 64 | > 64 | > 64 | > 64 | > 64 | > 64 | > 64 | > 64 | > 64 | > 64 | > 64 | > 64 | > 64 | > 64 | > 64 | 64 (≈ 126 µM) | > 64 | MIC [21]: > 64 mg/L; MIC [22]: > 64 mg/L; MIC [23]: > 64 mg/L; MIC [24]: 64 mg/L (≈ 126 µM); MIC [25]: > 64 mg/L; MIC [26]: > 64 mg/L; CC50 at 48 h [27]: 28 mg/L (≈ 54.9 µM); MIC [28]: > 64 mg/L; MIC [29]: > 64 mg/L; MIC [30]: > 64 mg/L; MIC [31]: > 64 mg/L; MIC [32]: > 64 mg/L; MIC [33]: > 64 mg/L; MIC [34]: > 64 mg/L; MIC [35]: > 64 mg/L; MIC [36]: > 64 mg/L; MIC [37]: > 64 mg/L |
| N=C(c1ccc2cc(-c3ccc(-c4cc5ccc(C(=N)N6CC=CC6)cc5[nH]4)cc3)[nH]c2c1)N1CC=CC1 | 8 (≈ 16.1 µM) | 8 (≈ 16.1 µM) | 32 (≈ 64.4 µM) | 4 (≈ 8.05 µM) | 8 (≈ 16.1 µM) | 8 (≈ 16.1 µM) | 8 (≈ 16.1 µM) | 32 (≈ 64.4 µM) | 8 (≈ 16.1 µM) | 8 (≈ 16.1 µM) | 4 (≈ 8.05 µM) | > 128 | 4 (≈ 8.05 µM) | 16 (≈ 32.2 µM) | 8 (≈ 16.1 µM) | 64 (≈ 129 µM) | 16 (≈ 32.2 µM) | > 128 | 1 (≈ 2.01 µM) | 4 (≈ 8.05 µM) | MIC [21]: 32 mg/L (≈ 64.4 µM); MIC [22]: 32 mg/L (≈ 64.4 µM); MIC [23]: 16 mg/L (≈ 32.2 µM); MIC [24]: 2 mg/L (≈ 4.03 µM); MIC [25]: 16 mg/L (≈ 32.2 µM); MIC [26]: 8 mg/L (≈ 16.1 µM); CC50 at 48 h [27]: 12.4 mg/L (≈ 24.9 µM); MIC [28]: 2 mg/L (≈ 4.03 µM); MIC [29]: > 128 mg/L; MIC [30]: 16 mg/L (≈ 32.2 µM); MIC [31]: 8 mg/L (≈ 16.1 µM); MIC [32]: 16 mg/L (≈ 32.2 µM); MIC [33]: 16 mg/L (≈ 32.2 µM); MIC [34]: > 128 mg/L; MIC [35]: 4 mg/L (≈ 8.05 µM); MIC [36]: 16 mg/L (≈ 32.2 µM); MIC [37]: 8 mg/L (≈ 16.1 µM) |
